Measured values taken from patent US12552812B2, “Pyridone multiple-membered ring derivatives and use thereof” (priority 2021, dated 2026).
Where two headings read alike, the source gives them in different places.

What was measured:
[1] = test system: influenza virus A/PR/8/34 (H1N1); assay: Influenza virus cytopathic effect (CPE) assay in MDCK cells; assay type: cell-based; settings: 120 h, 5 days, CCK8
[2] = test system: influenza A virus A/PR/8/34 (H1N1); assay type: in vivo, BALB/c mice; settings: for Survival rate (percentage): end of the experiment (day 14); for Maximum rate of weight loss / day N of maximum rate of weight loss: mouse, in vivo
[3] = in vivo; design: species or system male SD rats; settings: male, SD, iv, 1 mg/kg, rat, 1 mpk
Procedure: Experimental purpose: To investigate the plasma pharmacokinetics of the compounds of the present disclosure in male SD rats after a single intravenous injection or an oral administration.
Experimental animals: male SD rats, 6 to 8 weeks old, weighing between 200 to 300 g;
Experimental procedure: Injection administration (i.v.) was carried out with a dose of 1 mpk, at a concentration of 0.50 mg/mL, with a vehicle of 40% DMAC+40% PG+20% (20% HP-β-CD+water). Oral administration (po) was carried out with a dose of 10 mpk, at a concentration of 1 mg/mL, with a vehicle of 3% DMSO+10% solutol HS+87% water.
(§1) Sample collection: At each time point, 0.03 mL of blood samples were collected from the experimental animals through a puncture of the saphenous vein. The actual blood collection time was recorded. All blood samples were kept in commercially available 1.5 mL EDTA-K2 anticoagulant tubes. After blood sample collection, DDV was added into the plasma matrix as a stabilizer, wherein the ratio of plasma to Dichlorvos (DDV) solution was 40:1. The DDV solution was a 40 mM DDV solution in acetonitrile/water (1:1). Within half an hour, the mixture was centrifuged at 4° C. and 3000 g for 10 minutes. The supernatant plasma was aspirated, quickly placed in dry ice, and stored in a −80° C. refrigerator for LC-MS/MS analysis.
Data analysis: A non-compartmental model in Phoenix WinNonlin 6.3 pharmacokinetic software was used to process the plasma concentration data. The pharmacokinetic parameters were calculated using the linear-log trapezoidal method: Cl (apparent clearance rate), T1/2 (the time required to clear half of the compound), Cmax (peak concentration), and AUC0-last (integral area under the concentration-time curve from 0 to the last sampling time).

[4] = in vitro; assay type: in vitro ADME; settings: 2 μM, 37° C., 4 hours, read-out: Plasma protein binding (PPB) unbound (%)
Procedure: (§2) Experimental purpose: To evaluate the protein binding rate of the compounds of the present disclosure in the plasma of CD-1 mouse, SD rat, and human using equilibrium dialysis.
(§3) Experimental protocol: The test compounds were diluted with dialysis buffer into the plasma of the above […] to prepare samples with a final concentration of 2 μM. The samples were then added to a 96-well equilibrium dialysis device and dialyzed using phosphate buffer solution at 37° C. for 4 hours. Warfarin was used as a control compound in the experiment. The concentration of the test compounds and warfarin in the plasma and buffer was determined using LC-MS/MS.

[5] = in vitro; assay type: in vitro ADME, CD-1 mouse; settings: CD-1; mouse (M) plasma, 2 μM, 37° C., 4 hours; read-out: Plasma protein binding (PPB) unbound (%)
Procedure: as §2, §3

[6] = in vivo; design: species or system male beagle dogs; settings: male, iv, 1 mg/kg, beagle dog, 1 mpk
Procedure: Experimental purpose: To investigate the plasma pharmacokinetics of the compounds of the present disclosure in male beagle dogs after a single intravenous injection or an oral administration.
Experimental animals: male beagle dogs, >6 months old, weighing between 6 to 12 kg.
Experimental procedure: Injection administration (i.v.) was carried out with a dose of 1 mpk, at a concentration of 1 mg/mL, with a vehicle of 10% DMAC+90% (20% HP-β-CD+water). Oral administration (po) was carried out with a dose of 10 mpk, at a concentration of 2 mg/mL, with a vehicle of 3% DMSO+10% solutol HS+87% water.
as §1, with “0.8” for “0.03”
Data analysis: A non-compartmental model in Phoenix WinNonlin 6.3 pharmacokinetic software was used to process the plasma concentration data. The pharmacokinetic parameters were calculated using the linear-log trapezoidal method: Cl, T1/2, Cmax, and AUC0-last.

## O=C1c2c(O)c(=O)ccn2N([C@@H]2c3ccc(F)c(F)c3C[Se]c3cccnc32)[C@@H]2COCCN12 [Compound 3′]
[1]
  EC50: 157 nM

## COC(=O)OCOc1c2n(ccc1=O)N([C@H]1c3ccc(F)c(F)c3C[Se]c3cccnc31)[C@@H]1COCCN1C2=O [Compound 4]
[2]
  Survival rate (percentage): 100%
  Maximum rate of weight loss: 7.03%
  day N of maximum rate of weight loss: 3 days

## COC(=O)OCOc1c2n(ccc1=O)N([C@@H]1c3ccccc3[Se]Cc3c1ccc(F)c3F)[C@@H]1COCCN1C2=O [Compound 5]
[2]
  Survival rate (percentage): 100%
  Maximum rate of weight loss: 13.77%
  day N of maximum rate of weight loss: 7 days

## O=C1c2c(O)c(=O)ccn2N([C@H]2c3ccc(F)c(F)c3C[Se]c3cccnc32)[C@@H]2COCCN12 [Compound 3]
[3]
  AUC(0-t): 0.171 µM·h
  clearance: 178 mL/min/kg
  half-life: 1.7 h
[4]; SD, rat (R) plasma
  fraction unbound: 0.313
[4]; crab-eating macaque (C) plasma
  fraction unbound: 0.316
[4]; dog (D) plasma
  fraction unbound: 0.246
[4]; human (H) plasma
  fraction unbound: 0.259
[1]
  EC50: 2.8 nM
[5]
  fraction unbound: 0.137
[6]
  AUC(0-t): 0.83 µM·h
  clearance: 36.8 mL/min/kg
  half-life: 3.7 h
